Measurements published in patent US10392630B2, “Plants having increased tolerance to herbicides” (BASF AGRO B.V., priority 2013, dated 2019).

Tested on: Alopecurus wildtype PPO (ALOMY), PPO herbicide sensitive PPO2, SEQ ID NO 2
Test: PPO enzyme assay, dose-response (fluorescence), wildtype Alopecurus PPO2
Type: biochemical, Alopecurus myosuroides
Settings: Table 3b; SEQ ID NO 2, WT

Compound: C#CCN1C(=O)C(F)(F)Oc2cc(F)c(-n3c(=O)cc(C(F)(F)F)n(C)c3=O)cc21 [1-methyl-6-(trifluoromethyl)-3-(2,2,7-trifluoro-3-oxo-4-prop-2-ynyl-1,4-benzoxazin-6-yl)pyrimidine-2,4-dione]
- IC50: 189 pM

Compound: COC(Oc1ccccc1Oc1cc(-n2c(=O)cc(C(F)(F)F)n(C)c2=O)c(F)cc1Cl)C(=O)OCC(F)F (stereo not shown) [2,2-difluoroethyl 2-[2-[2-chloro-4-fluoro-5-[3-methyl-2,6-dioxo-4-(trifluoromethyl)pyrimidin-1-yl]phenoxy]phenoxy]-2-methoxy-acetate]
- IC50: 335 pM

Compound: C#CCN1C(=O)C(F)(F)Oc2cc(F)c(N3C(=O)C4=C(CCCC4)C3=O)cc21 [2-(2,2,7-trifluoro-3-oxo-4-prop-2-ynyl-1,4-benzoxazin-6-yl)-4,5,6,7-tetrahydroisoindole-1,3-dione]
- IC50: 243 pM

Compound: CCOCCOC(=O)C(OC)Oc1ccccc1Oc1cc(-n2c(=O)cc(C(F)(F)F)n(C)c2=O)c(F)cc1Cl (stereo not shown) [2-ethoxyethyl 2-[2-[2-chloro-4-fluoro-5-[3-methyl-2,6-dioxo-4-(trifluoromethyl)pyrimidin-1-yl]phenoxy]phenoxy]-2-methoxy-acetate]
- IC50: 816 pM

Compound: COC(Oc1ccccc1Oc1cc(-n2c(=O)cc(C(F)(F)F)n(C)c2=O)c(F)cc1Cl)C(=O)OCc1ccncc1 (stereo not shown) [4-pyridylmethyl 2-[2-[2-chloro-4-fluoro-5-[3-methyl-2,6-dioxo-4-(trifluoromethyl)pyrimidin-1-yl]phenoxy]phenoxy]-2-methoxy-acetate]
- IC50: 671 pM

Compound: COC(Oc1ccccc1Oc1cc(-n2c(=O)cc(C(F)(F)F)n(C)c2=O)c(F)cc1Cl)C(=O)OCC1(C)CC1 (stereo not shown) [(1-methylcyclopropyl)methyl 2-[2-[2-chloro-4-fluoro-5-[3-methyl-2,6-dioxo-4-(trifluoromethyl)pyrimidin-1-yl]phenoxy]phenoxy]-2-methoxy-acetate]
- IC50: 751 pM

Compound: C=CCOC(=O)C(C)(C)OC(=O)c1cc(-n2c(=O)cc(C(F)(F)F)n(C)c2=O)ccc1Cl [BUTAFENACIL]
- IC50: 13.1 pM

Compound: CCOC(=O)C(Cl)Cc1cc(-n2nc(C)n(C(F)F)c2=O)c(F)cc1Cl (stereo not shown) [CARFENTRAZONE-ETHYL]
- IC50: 1470 pM

Compound: CCOC(=O)/C(Cl)=C/c1cc(N2C(=O)C3=C(CCCC3)C2=O)ccc1Cl [CINIDON-ETHYL, ethyl (Z)-2-chloro-3-[2-chloro-5-(1,3-dioxo-4,5,6,7-tetrahydroisoindol-2-yl)phenyl]prop-2-enoate]
- IC50: 81200 pM

Compound: C#CCN1C(=O)COc2cc(F)c(N3C(=O)C4=C(CCCC4)C3=O)cc21 [FLUMIOXAZIN, 2-(7-fluoro-3-oxo-4-prop-2-ynyl-1,4-benzoxazin-6-yl)-4,5,6,7-tetrahydroisoindole-1,3-dione]
- IC50: 144 pM

Compound: CS(=O)(=O)NC(=O)c1cc(Oc2ccc(C(F)(F)F)cc2Cl)ccc1[N+](=O)[O-] [FOMESAFEN]
- IC50: 90300 pM

Compound: CCOC(=O)C(C)OC(=O)c1cc(Oc2ccc(C(F)(F)F)cc2Cl)ccc1[N+](=O)[O-] (stereo not shown) [LACTOFEN, (2-ethoxy-1-methyl-2-oxo-ethyl) 5-[2-chloro-4-(trifluoromethyl)phenoxy]-2-nitro-benzoate]
- IC50: 18700 pM

Compound: CCOc1cc(Oc2ccc(C(F)(F)F)cc2Cl)ccc1[N+](=O)[O-] [OXIFLUORFEN, 2-CHLORO-1-(3-ETHOXY-4-NITROPHENOXY)-4-(TRIFLUOROMETHYL)BENZENE]
- IC50: 8240 pM

Compound: COC(Oc1ccccc1Oc1cc(-n2c(=O)cc(C(F)(F)F)n(C)c2=O)c(F)cc1Cl)C(=O)OC1CCCCC1 (stereo not shown) [cyclohexyl 2-[2-[2-chloro-4-fluoro-5-[3-methyl-2,6-dioxo-4-(trifluoromethyl)pyrimidin-1-yl]phenoxy]phenoxy]-2-methoxy-acetate]
- IC50: 2990 pM

Compound: COC(=O)C(OC)Oc1ccccc1Oc1cc(-n2c(=O)cc(C(F)(F)F)n(C)c2=O)c(F)cc1Cl (stereo not shown) [methyl 2-[2-[2-chloro-4-fluoro-5-[3-methyl-2,6-dioxo-4-(trifluoromethyl)pyrimidin-1-yl]phenoxy]phenoxy]-2-methoxy-acetate]
- IC50: 194 pM

Compound: OXADIARGYL
- IC50: 1170 pM
